Results as given in US6855348B2, “Insecticidal composition derived from plants” (priority 2000, dated 2005).
Read-outs that look alike come from different tables or passages of the source.

Tests used:
Dermatophagoides farinae = system: Dermatophagoides farinae
Protocol: (§1) American house dust mite (Dermatophagoides farinae) and European house dust mite (Dermatophagoide pteronyssinus) were maintained at 75±5% RH (relative humidity) at 25±1° C., and were provided a feed mixture of fish meal and multi-vitamins in a ratio of 1 to 1 on a 12.5×10.5×5 cm container.
(§2) The starting concentration is important for the primary screening of bioactive compounds from plant extracts and oils. […] 1 mg of the methanol extracts or oils were suspended with 40 μl of methanol and were transferred to a colorless microtube (2 ml). The microtube was vertically shaken several times to disperse the contents to the wall and cap of the microtube and it was placed in a freeze dryer for 1 hour in order to volatilize the solvent. Twenty-five mites were placed on the prepared microtube, and all treatment groups were transferred to an incubator kept at […]. Active mites only were selected with a fine brush under a microscope. Mortalities were determined with a microscope at 24 hours and 48 hours after treatment. […] All tests were replicated four or more times. The percentage mortality was determined and transformed to arcsine square-root values for analysis of variance (ANOVA). Treatment means were compared and separated by Scheffe's test at the P=0.05 (SAS Institute, 1996). Means (±standard error) of untransformed data are reported. Controls received 40 μl of methanol.

[1] = system: Dermatophagoides pteronyssinus
Protocol: as §1, §2

[2] = synergic effect test, 0.25 mg/tube of each compound, 24 hr

## CCCCOC(=O)c1ccccc1C(=O)OCCCC [dibutyl phtalate, reference compound]
Dermatophagoides farinae; [2]
  Mortality (Means ± standard error, %): 92.0%
[1]; [2]
  Mortality (Means ± standard error, %): 95.2%

## O=C/C=C/c1ccccc1 [trans-cinnamaldehyde]
Dermatophagoides farinae; 0.125 mg/tube, 24 hr
  Mortality (Means ± standard error, %): 18.0 ± 2.6d %
Dermatophagoides farinae; 0.125 mg/tube, 48 hr
  Mortality (Means ± standard error, %): 23.0 ± 3.4c %
Dermatophagoides farinae; 0.2 mg/tube, 24 hr
  Mortality (Means ± standard error, %): 19.0 ± 2.5cd %
Dermatophagoides farinae; 0.2 mg/tube, 48 hr
  Mortality (Means ± standard error, %): 29.0 ± 1.9bc %
Dermatophagoides farinae; 0.25 mg/tube, 24 hr
  Mortality (Means ± standard error, %): 21.0 ± 2.5cd %
Dermatophagoides farinae; 0.25 mg/tube, 48 hr
  Mortality (Means ± standard error, %): 30.0 ± 8.7bc %
Dermatophagoides farinae; 0.3 mg/tube, 24 hr
  Mortality (Means ± standard error, %): 32.0 ± 1.6bc %
Dermatophagoides farinae; 0.3 mg/tube, 48 hr
  Mortality (Means ± standard error, %): 39.0 ± 2.5bc %
Dermatophagoides farinae; 0.4 mg/tube, 24 hr
  Mortality (Means ± standard error, %): 41.0 ± 2.5b %
Dermatophagoides farinae; 0.4 mg/tube, 48 hr
  Mortality (Means ± standard error, %): 45.0 ± 2.5b %
Dermatophagoides farinae; 0.5 mg/tube, 24 hr
  Mortality (Means ± standard error, %): 94.0%
Dermatophagoides farinae; 0.5 mg/tube, 48 hr
  Mortality (Means ± standard error, %): 96.0 ± 2.3a %
Dermatophagoides farinae; 1 mg/tube, 24 hr
  Mortality (Means ± standard error, %): 99.0 a^c %
Dermatophagoides farinae; 1 mg/tube, 48 hr
  Mortality (Means ± standard error, %): 100a %
[1]; 0.125 mg/tube, 24 hr
  Mortality (Means ± standard error, %): 6.0 ± 3.5d %
[1]; 0.125 mg/tube, 48 hr
  Mortality (Means ± standard error, %): 9.0 ± 2.5c %
[1]; 0.2 mg/tube, 24 hr
  Mortality (Means ± standard error, %): 7.0 ± 1.0cd %
[1]; 0.2 mg/tube, 48 hr
  Mortality (Means ± standard error, %): 9.0 ± 1.0c %
[1]; 0.25 mg/tube, 24 hr
  Mortality (Means ± standard error, %): 9.0 ± 1.9cd %
[1]; 0.25 mg/tube, 48 hr
  Mortality (Means ± standard error, %): 10.0 ± 2.6bc %
[1]; 0.3 mg/tube, 24 hr
  Mortality (Means ± standard error, %): 25.0 ± 2.5bc %
[1]; 0.3 mg/tube, 48 hr
  Mortality (Means ± standard error, %): 32.0 ± 2.8b %
[1]; 0.4 mg/tube, 24 hr
  Mortality (Means ± standard error, %): 33.0 ± 2.5b %
[1]; 0.4 mg/tube, 48 hr
  Mortality (Means ± standard error, %): 42.0 ± 4.2b %
[1]; 0.5 mg/tube, 24 hr
  Mortality (Means ± standard error, %): 84.0%
[1]; 0.5 mg/tube, 48 hr
  Mortality (Means ± standard error, %): 94.0 ± 2.6a %
[1]; 1 mg/tube, 24 hr
  Mortality (Means ± standard error, %): 100a %
[1]; 1 mg/tube, 48 hr
  Mortality (Means ± standard error, %): 100a %

## OC/C=C/c1ccccc1 [cinnamyl alcohol]
Dermatophagoides farinae; 0.125 mg/tube, 24 hr
  Mortality (Means ± standard error, %): 1.0 ± 1.0d %
Dermatophagoides farinae; 0.125 mg/tube, 48 hr
  Mortality (Means ± standard error, %): 2.0 ± 1.2c %
Dermatophagoides farinae; 0.2 mg/tube, 24 hr
  Mortality (Means ± standard error, %): 7.0 ± 1.0c %
Dermatophagoides farinae; 0.2 mg/tube, 48 hr
  Mortality (Means ± standard error, %): 7.0 ± 1.0c %
Dermatophagoides farinae; 0.25 mg/tube, 24 hr
  Mortality (Means ± standard error, %): 10.0 ± 3.8c %
Dermatophagoides farinae; 0.25 mg/tube, 48 hr
  Mortality (Means ± standard error, %): 10.0 ± 4.1c %
Dermatophagoides farinae; 0.3 mg/tube, 24 hr
  Mortality (Means ± standard error, %): 39.0 ± 2.6b %
Dermatophagoides farinae; 0.3 mg/tube, 48 hr
  Mortality (Means ± standard error, %): 45.0 ± 1.9b %
Dermatophagoides farinae; 0.4 mg/tube, 24 hr
  Mortality (Means ± standard error, %): 58.0 ± 2.6b %
Dermatophagoides farinae; 0.4 mg/tube, 48 hr
  Mortality (Means ± standard error, %): 65.0 ± 1.9ab %
Dermatophagoides farinae; 0.5 mg/tube, 24 hr
  Mortality (Means ± standard error, %): 90.0%
Dermatophagoides farinae; 0.5 mg/tube, 48 hr
  Mortality (Means ± standard error, %): 97.0 ± 1.9a %
Dermatophagoides farinae; 1 mg/tube, 24 hr
  Mortality (Means ± standard error, %): 99.0 ± 1.0a %
Dermatophagoides farinae; 1 mg/tube, 48 hr
  Mortality (Means ± standard error, %): 100a %
[1]; 0.125 mg/tube, 24 hr
  Mortality (Means ± standard error, %): 1.0 ± 1.0e %
[1]; 0.125 mg/tube, 48 hr
  Mortality (Means ± standard error, %): 3.0 ± 1.9d %
[1]; 0.2 mg/tube, 24 hr
  Mortality (Means ± standard error, %): 6.0 ± 1.2d %
[1]; 0.2 mg/tube, 48 hr
  Mortality (Means ± standard error, %): 10.0 ± 1.2c %
[1]; 0.25 mg/tube, 24 hr
  Mortality (Means ± standard error, %): 15.0 ± 1.9d %
[1]; 0.25 mg/tube, 48 hr
  Mortality (Means ± standard error, %): 14.0 ± 2.6c %
[1]; 0.3 mg/tube, 24 hr
  Mortality (Means ± standard error, %): 35.0 ± 2.5c %
[1]; 0.3 mg/tube, 48 hr
  Mortality (Means ± standard error, %): 40.0 ± 3.7b %
[1]; 0.4 mg/tube, 24 hr
  Mortality (Means ± standard error, %): 56.0 ± 2.8b %
[1]; 0.4 mg/tube, 48 hr
  Mortality (Means ± standard error, %): 62.0 ± 2.6b %
[1]; 0.5 mg/tube, 24 hr
  Mortality (Means ± standard error, %): 90.0%
[1]; 0.5 mg/tube, 48 hr
  Mortality (Means ± standard error, %): 97.0 ± 1.9a %
[1]; 1 mg/tube, 24 hr
  Mortality (Means ± standard error, %): 99.0 ± 1.0a %
[1]; 1 mg/tube, 48 hr
  Mortality (Means ± standard error, %): 100a %

## CCN(CC)C(=O)c1cccc(C)c1 [DEET, reference compound]
Dermatophagoides farinae; [2]
  Mortality (Means ± standard error, %): 96.8%
[1]; [2]
  Mortality (Means ± standard error, %): 16.8%
